# Measurements reported in article PMC3299299, “Recombinant Expression and Characterization of Human and Murine ACE2: Species-Specific Activation of the Alternative Renin-Angiotensin-System” (International Journal of Hypertension, 2012).
# Columns and labels:
# Format in all cases: biochemical
# RAS in whole blood = experiment: Ex vivo incubation of whole blood, RAS-Fingerprinting; conditions: whole blood instead of plasma, control and rhACE2 samples (Supplementary Figure 1)
# Source text: These findings were in contrast to previously published reports on Ang 1–7 accumulating effects of ACE inhibitors in vivo [20, 21]. In our experimental setting, we employed heparinized blood plasma as a sample matrix for ACE2 characterization which is reflecting in vivo conditions very well. However, plasma lacks all blood cells which might carry receptors and angiotensin peptide converting enzymes being able to affect angiotensin peptide concentrations in vivo. […] As neutral endopeptidase (NEP, CD10) is known to be expressed on the cell surface of leukocytes and that it is able to convert Ang 1–10 and Ang 1–9 to Ang 1–7 in vitro [18], NEP is very likely to be responsible for Ang 1–7 accumulation also in vivo, especially in the presence of ACE inhibitors which block the formation of Ang 1–8 which is an important precursor for Ang 1–7.
# [1] = system: human RAS in blood plasma; experiment: Ex vivo incubation of renin-spiked human plasma, RAS-Fingerprinting by LC-MS/MS; conditions: human plasma + 100 pg/mL recombinant human renin, 10 μM Lisinopril present, without or with 5 μg/mL enzyme, 10 min 37°C (Fig 3b)
# Description: Anticoagulated blood was collected from healthy volunteers, and plasma was separated by 10 minutes centrifugation at 3000 RCF. […] After 10 minutes of incubation at 37°C, in the presence or absence of Lisinopril (Sigma), samples were chilled on ice and immediately subjected to LC-MS/MS analysis.
# Plasma samples were spiked with 100 pg/mL stable-isotope-labeled internal standards and subjected to solid-phase extraction using Sep-Pak cartridges (Waters) according to manufacturers protocol. Following elution and solvent evaporation, samples were reconstituted in 50 μL 50% acetonitrile/0.1% formic acid and subjected to LC-MS/MS analysis using a reversed-phase analytical column (Luna C18, Phenomenex) using a gradient ranging from 10% acetonitrile/0.1% formic acid to 70% acetonitrile/0.1% formic acid in 9 minutes. The eluate was analyzed in line with a QTRAP-4000 mass spectrometer (AB Sciex) operated in the MRM mode using dwell times of 25 msec at a cone voltage of 4000 volts and a source temperature of 300°C. For each peptide and corresponding internal standards, two different mass transitions were measured. Angiotensin peptide concentrations were calculated by relating endogenous peptide signals to internal standard signals provided that integrated signals achieved a signal-to-noise ratio above 10.
# RAS-Fingerprints were measured by LC-MS/MS as indicated in Section 2. Samples were incubated in the absence (a) or presence (b) of 10 μM of the ACE inhibitor Lisinopril. In this figure, the diameter of the spheres reflects the concentration of the respective peptide metabolite, which is also given in pg/mL next to each individual sphere. 0 pg/mL indicates concentrations below quantification limits, which are defined by a signal-to-noise ratio below 10. Furthermore, the amino acid sequence of each angiotensin metabolite is schematically given in brackets beside the corresponding sphere. The sequence annotation is based on the decapeptide Angiotensin I (1–10) which is N- or C-terminally cleaved by the indicated proteases. […]
# Ang 1–8 = experiment: In vitro kinetic assay, Ang 1–8 cleavage to Ang 1–7, HPLC quantification; conditions: ratio of k cat of the same enzyme for the two substrates
# Description: (§1) Enzyme reactions were started by adding a defined amount of enzyme to substrate dilutions in MES-buffer (50 mM MES, 300 mM NaCl, 10 μM ZnCl2, 0.01% Brij-35, pH 6.5) which were previously equilibrated at 37°C. Aliquots of the reaction mixes were taken every 10 minutes and stopped by addition of 0.5 M EDTA to a final concentration of 100 mM before HPLC-based quantification of peptides.
# (§2) The concentration of peptides in enzymatic reactions was quantified by detection of peaks eluted from the HPLC column using an in-line diode array detector. Chromatography was performed by running a gradient on a reversed-phase matrix (Source 5RPC, 4.6×150 mm, 5 μm) with 0.08% H3PO4 in water as mobile phase A and 40% acetonitrile in water and 0.08% H3PO4 as mobile phase B. The optical density at 280 nm was recorded inline for all eluting peaks, and peptide concentrations were calculated via calibration curves for each individual peptide.
# The turnover rates for natural ACE2 substrates were determined by in vitro incubation with excess amounts of substrate followed by reversed-phase HPLC analysis. […] The resulting time courses are shown in the graphs. […] Each time point was analyzed in true triplicates and standard deviations are given in the graphs together with linear regressions of the measured values.
# Ang 1–10 = experiment: In vitro kinetic assay, Ang 1–10 cleavage to Ang 1–9, HPLC quantification; conditions: […] enzyme, 65 μM Ang 1–10, MES buffer pH 6.5, 37°C, HPLC; mean of substrate degradation and product formation rates related to enzyme concentration; triplicates
# Description: as §1, §2
# The turnover rates for natural ACE2 substrates were determined by in vitro incubation with excess amounts of substrate followed by reversed-phase HPLC analysis. […] Each time point was analyzed in true triplicates and standard deviations are given in the graphs together with linear regressions of the measured values.
Compound,Ang 1–7 concentration in whole blood in response to Lisinopril (RAS in whole blood),Ang (1–10) concentration in plasma ([1]; 0 = below quantification limit),Ang (1–7) concentration in plasma ([1]; 0 = below quantification limit (2 pg/mL plasma)),turnover number for Ang 1–8 compared to Ang 1–10 (Ang 1–8),"k cat, Ang 1–10 ≥ Ang 1–9 (Ang 1–10)"
NCCCC[C@H](N[C@@H](CCc1ccccc1)C(=O)O)C(=O)N1CCC[C@H]1C(=O)O [Lisinopril],increase of Ang 1–7 concentrations,710 pg/mL,< 2 pg/mL,–,–
rhACE2: extracellular domain of human ACE2 recombinantly expressed in CHO cells,–,–,–,42 fold,0.018 s⁻¹
